Measured values published in the NIST ThermoML archive (doi:10.1016/j.jct.2016.07.046).
Numbers after ± are expanded uncertainties.

Experiment: mn = molality of the nth substance listed, in mol/kg
Settings: 87 kPa, Liquid, Vibrating tube method

NCC(=O)O [2-aminoacetic acid] + O
mass density [kg/m3]
Settings	m1 = 0.0547	m1 = 0.1057	m1 = 0.1546	m1 = 0.2061	m1 = 0.2531	m1 = 0.3046	m1 = 0.3538	m1 = 0.403	m1 = 0.452	m1 = 0.499
293.15 K	999.97 ± 3	1001.59 ± 3	1003.13 ± 3	1004.74 ± 3	1006.2 ± 3	1007.78 ± 3	1009.28 ± 3	1010.77 ± 3	1012.24 ± 3	1013.64 ± 3
298.15 K	998.8 ± 3	1000.41 ± 3	1001.94 ± 3	1003.54 ± 3	1004.99 ± 3	1006.56 ± 3	1008.06 ± 3	1009.54 ± 3	1011 ± 3	1012.39 ± 3
303.15 K	997.39 ± 3	998.99 ± 3	1000.51 ± 3	1002.1 ± 3	1003.53 ± 3	1005.09 ± 3	1006.57 ± 3	1008.04 ± 3	1009.48 ± 3	1010.86 ± 3
308.15 K	995.77 ± 3	997.36 ± 3	–	1000.45 ± 3	1001.88 ± 3	1003.42 ± 3	1004.89 ± 3	1006.35 ± 3	1007.78 ± 3	1009.14 ± 3
313.15 K	993.92 ± 3	995.5 ± 3	997 ± 3	–	999.99 ± 3	1001.53 ± 3	1002.98 ± 3	1004.43 ± 3	1005.86 ± 3	1007.22 ± 3

N[C@@H](CO)C(=O)O [L-serine] + O
mass density [kg/m3]
Settings	m1 = 0.0529	m1 = 0.1005	m1 = 0.1529	m1 = 0.2024	m1 = 0.2541	m1 = 0.3019	m1 = 0.3525	m1 = 0.4023	m1 = 0.4535	m1 = 0.5008
293.15 K	1000.59 ± 3	1002.7 ± 3	1005 ± 3	1007.15 ± 3	1009.38 ± 3	1011.42 ± 3	1013.56 ± 3	1015.65 ± 3	1017.77 ± 3	1019.72 ± 3
298.15 K	999.41 ± 3	1001.5 ± 3	1003.78 ± 3	1005.92 ± 3	1008.13 ± 3	1010.15 ± 3	1012.27 ± 3	1014.34 ± 3	1016.44 ± 3	1018.37 ± 3
303.15 K	997.99 ± 3	1000.06 ± 3	1002.33 ± 3	1004.45 ± 3	1006.64 ± 3	1008.65 ± 3	1010.76 ± 3	1012.81 ± 3	1014.9 ± 3	1016.82 ± 3
308.15 K	996.36 ± 3	998.42 ± 3	1000.67 ± 3	1002.77 ± 3	1004.94 ± 3	1006.94 ± 3	1009.04 ± 3	1011.08 ± 3	1013.16 ± 3	1015.07 ± 3
313.15 K	994.5 ± 3	996.54 ± 3	998.77 ± 3	1000.85 ± 3	1003.01 ± 3	1004.99 ± 3	1007.07 ± 3	1009.11 ± 3	1011.18 ± 3	1013.07 ± 3

CCn1cc[n+](C)c1.O=S(=O)([O-])O [1-ethyl-3-methylimidazolium hydrogen sulfate] + O
mass density [kg/m3]
Settings	293.15 K	298.15 K	303.15 K	308.15 K	313.15 K
m1 = 0.05	1001.85 ± 3	1000.62 ± 3	999.15 ± 3	997.45 ± 3	995.6 ± 3
m1 = 0.1	1005.19 ± 3	1003.89 ± 3	1002.36 ± 3	1000.61 ± 3	998.69 ± 3
m1 = 0.15	1008.26 ± 3	1006.91 ± 3	1005.32 ± 3	1003.53 ± 3	1001.51 ± 3
